In publication PMC5063996, “The Mechanism by Which Arabinoxylanases Can Recognize Highly Decorated Xylans” (The Journal of Biological Chemistry, 2016):

Target: T1, CtGH5-CBM6 (CtGH5-CtCBM6, derivative of arabinoxylanase CtXyl5A) (Acetivibrio thermocellus, UniProt A3DHG6, E279S)
T1 construct: gene Cthe_2193; no signal peptide, CBM13, Fn3, CBM62 or dockerin; C-terminal His6; E. coli BL21(DE3)
Test: X-ray crystal structure, co-crystal, […] Å
Type: binding
Details: nucleophile-inactive mutant; 10 mM WAX-derived oligosaccharide; subsites -1 to -4 and -2*; PDB code printed as 2LA2 (apparent misprint for 5LA2)

T1 sequence (A3DHG6 entry or part of it E279S): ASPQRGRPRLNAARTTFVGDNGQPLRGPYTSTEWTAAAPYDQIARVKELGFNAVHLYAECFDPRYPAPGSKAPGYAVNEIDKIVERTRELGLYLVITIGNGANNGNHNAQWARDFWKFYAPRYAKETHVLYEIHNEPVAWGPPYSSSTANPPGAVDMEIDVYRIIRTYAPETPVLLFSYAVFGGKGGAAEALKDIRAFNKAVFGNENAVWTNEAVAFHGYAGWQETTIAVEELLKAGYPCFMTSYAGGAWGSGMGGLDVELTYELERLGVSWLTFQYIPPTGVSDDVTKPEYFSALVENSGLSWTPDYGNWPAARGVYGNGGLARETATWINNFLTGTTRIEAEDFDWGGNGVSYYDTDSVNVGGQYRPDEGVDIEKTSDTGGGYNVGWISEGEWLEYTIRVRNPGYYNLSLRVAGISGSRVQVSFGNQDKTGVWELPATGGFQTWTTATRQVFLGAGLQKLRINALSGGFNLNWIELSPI

Structure (SMILES): OC[C@@H]1O[C@@H](O[C@H]2[C@H](O[C@@H]3OC[C@@H](O[C@@H]4OC[C@@H](O[C@@H]5OC[C@@H](O)[C@H](O)[C@H]5O)[C@H](O)[C@H]4O)[C@H](O)[C@H]3O)COC(O)[C@@H]2O)[C@H](O)[C@H]1O (stereo partly drawn) [Xylp-β-1,4-Xylp-β-1,4-Xylp-[α-1,3-Araf]-β-1,4-Xylp]
- X-ray crystal structure, co-crystal, 1.65 Å: co-crystallizing the nucleophile inactive mutant CtGH5E279S-CtCBM6 with a WAX-derived oligosaccharide
